Data published in US5030760A, “Tetrahydrophthalimides, and their production and use” (Sumitomo Chemical Company, Ltd., priority 1981, dated 1991).

Tests used:
barnyardgrass = assay: Test Example 1, foliar treatment, herbicidal activity; format: in vivo, Echinochloa crus-galli; settings: 3 weeks; also: ranges in brackets are in %
Protocol: (§1) The application of the tetrahydrophthalimides (I) as herbicides will be illustratively shown in the following Examples wherein the phytotoxicity to cultivated plants and the herbicidal activity on weeds were evaluated as follows: the aerial parts of the test plants were cut off and weighed (fresh weight); the percentage of the fresh weight of the treated plant to that of the untreated plant was calculated with the latter fresh weight taken as 100; and the crop damage and the herbicidal activity were evaluated by the standard given in the table below. The rating values of phytotoxicity, 0 and 1, and those of herbicidal effect, 5 and 4, are generally regarded as satisfactory to protect cultivated plants and control weeds, respectively. The rating values in the paddy field test alone were calculated from the dry weight of the test plants.
(§2) Plastic beakers (diameter, 10 cm; height, 10 cm) were filled with upland field soil, and the seeds of corn, barnyardgrass, wild oat, wild mustard and velvetleaf were separately sown in the beakers and grown for 2 weeks in the greenhouse. A designed amount of the test compound was sprayed to the foliage of the test plants by means of a small hand sprayer. After the spraying, the test plants were further grown for 3 weeks in the greenhouse, and herbicidal activity was examined. In this foliar treatment, the test compounds were formulated into an emulsifiable concentrate according to Preparation Example 2 and applied at a spray volume of 5 liters per are by dispersing it in water with the addition of a spreading agent.

cotton = assay: Test Example 4, pre-emergence treatment, phytotoxicity to cotton; format: in vivo; settings: 20 days; also: ranges in brackets are in %
Protocol: as §1
(§3) Plastic beakers (diameter, 10 cm; height, 10 cm) were filled with upland field soil, and the seeds of corn, cotton and soybean and the seeds of morningglory, velvetleaf, Johnsongrass and green foxtail were separately sown in the beakers. A designed amount of the test compound was sprayed over the top by means of a small hand sprayer. After the spraying, the test plants were grown for 20 days in the greenhouse, and herbicidal activity and phytotoxicity were examined. In this pre-emergence treatment, the test compounds were formulated into an emulsifiable concentrate according to Preparation Example 2 and applied at a spray volume of 5 liters per are by dispersing it in water with the addition of a spreading agent.

wild oat = assay: Test Example 1, foliar treatment, herbicidal activity; format: in vivo, Avena fatua; settings: 3 weeks; also: ranges in brackets are in %
Protocol: as §1, §2

velvetleaf [1] = assay: Test Example 4, pre-emergence treatment, herbicidal activity; format: in vivo, Abutilon theophrasti; settings: 20 days; also: ranges in brackets are in %
Protocol: as §1, §3

green foxtail = assay: as above; format: in vivo, Setaria viridis; settings: 20 days; also: ranges in brackets are in %
Protocol: as §1, §3

morningglory = assay: as above; format: in vivo; settings: 20 days
Protocol: as §1, §3

Johnsongrass = assay: as above; format: in vivo, Sorghum halepense; settings: 20 days; also: ranges in brackets are in %
Protocol: as §1, §3

tall morningglory = assay: Test Example 3, soil surface spraying, herbicidal activity; format: in vivo, Ipomoea purpurea; settings: 20 days; also: ranges in brackets are in %
Protocol: as §1
(§4) Plastic trays (35 cm×25 cm×15 cm) were filled with upland field soil, and the seeds of tall morningglory, velvetleaf and sicklepod and the seeds of corn were sown therein. A designed amount of the test compounds formulated into a wettable powder according to Preparation Example 1 was dispersed in water and applied by spraying at a spray volume of 5 liters per are to the whole surface of the soil. After the spraying, the test plants were placed in a greenhouse and grown for 20 days, and herbicidal activity and phytotoxicity were examined.

velvetleaf [2] = assay: as above; format: in vivo, Abutilon theophrasti; settings: 20 days
Protocol: as §1, §4

velvetleaf [3] = assay: Test Example 1, foliar treatment, herbicidal activity; format: in vivo, Abutilon theophrasti; settings: 3 weeks; also: ranges in brackets are in %
Protocol: as §1, §2

sicklepod = assay: Test Example 3, soil surface spraying, herbicidal activity; format: in vivo, Cassia obtusifolia; settings: 20 days; also: ranges in brackets are in %
Protocol: as §1, §4

corn [4] = assay: Test Example 4, pre-emergence treatment, phytotoxicity to corn; format: in vivo; settings: 20 days; also: ranges in brackets are in %
Protocol: as §1, §3

corn [5] = assay: Test Example 1, foliar treatment, phytotoxicity to corn; format: in vivo; settings: 3 weeks; also: ranges in brackets are in %
Protocol: as §1, §2

corn [6] = assay: Test Example 3, soil surface spraying, phytotoxicity to corn; format: in vivo; settings: 20 days; also: ranges in brackets are in %
Protocol: as §1, §4

soybean = assay: Test Example 4, pre-emergence treatment, phytotoxicity to soybean; format: in vivo; settings: 20 days; also: ranges in brackets are in %
Protocol: as §1, §3

wild mustard = assay: Test Example 1, foliar treatment, herbicidal activity; format: in vivo, Brassica kaber; settings: 3 weeks
Protocol: as §1, §2
For Herbicidal activity, Morningglory in this document: ranges in brackets are in %.
For Herbicidal activity, Velvetleaf in this document: ranges in brackets are in %.

CCOc1cc(N2C(=O)C3=C(CCCC3)C2=O)c(F)cc1Cl [compound 2]
3 (11-20): Herbicidal activity, Barnyardgrass (barnyardgrass; 1.25 g/are) | Herbicidal activity, Wild cat (wild oat; 1.25 g/are)
5 (0): Herbicidal activity, Barnyardgrass (barnyardgrass; 5 g/are) | Herbicidal activity, Wild cat (wild oat; 5 g/are) | Herbicidal activity, Velvetleaf (velvetleaf [1]; 2.5 g/are) | Herbicidal activity, Velvetleaf (velvetleaf [1]; 10 g/are) | Herbicidal activity, Green foxtail (green foxtail; 10 g/are) | Herbicidal activity, Johnsongrass (Johnsongrass; 10 g/are) | Herbicidal activity, Velvetleaf (velvetleaf [2]; 5 g/are) | Herbicidal activity, Velvetleaf (velvetleaf [2]; 10 g/are) | Herbicidal activity, Velvetleaf (velvetleaf [3]; 1.25 g/are) | Herbicidal activity, Velvetleaf (velvetleaf [3]; 5 g/are) | Herbicidal activity, Sicklepod (sicklepod; 10 g/are) | Herbicidal activity, Wild mustard (wild mustard; 1.25 g/are) | Herbicidal activity, Wild mustard (wild mustard; 5 g/are)
0 (100): Phytotoxicity, Cotton (cotton; 2.5 g/are) | Phytotoxicity, Cotton (cotton; 10 g/are) | Phytotoxicity, Corn (corn [4]; 2.5 g/are) | Phytotoxicity, Corn (corn [5]; 1.25 g/are) | Phytotoxicity, Corn (corn [6]; 5 g/are) | Phytotoxicity, Corn (corn [6]; 10 g/are) | Phytotoxicity, Soybean (soybean; 2.5 g/are) | Phytotoxicity, Soybean (soybean; 10 g/are)
4 (1-10): Herbicidal activity, Green foxtail (green foxtail; 2.5 g/are) | Herbicidal activity, Morningglory (morningglory; 2.5 g/are) | Herbicidal activity, Morningglory (morningglory; 10 g/are) | Herbicidal activity, Johnsongrass (Johnsongrass; 2.5 g/are) | Herbicidal activity, Tall morningglory (tall morningglory; 5 g/are) | Herbicidal activity, Tall morningglory (tall morningglory; 10 g/are) | Herbicidal activity, Sicklepod (sicklepod; 5 g/are)
1 (90-99): Phytotoxicity, Corn (corn [4]; 10 g/are) | Phytotoxicity, Corn (corn [5]; 5 g/are)

CCCOc1cc(N2C(=O)C3=C(CCCC3)C2=O)c(F)cc1Cl [compound 3]
5 (0): Herbicidal activity, Barnyardgrass (barnyardgrass; 5 g/are) | Herbicidal activity, Wild cat (wild oat; 5 g/are) | Herbicidal activity, Velvetleaf (velvetleaf [1]; 2.5 g/are) | Herbicidal activity, Velvetleaf (velvetleaf [1]; 10 g/are) | Herbicidal activity, Green foxtail (green foxtail; 10 g/are) | Herbicidal activity, Johnsongrass (Johnsongrass; 10 g/are) | Herbicidal activity, Tall morningglory (tall morningglory; 10 g/are) | Herbicidal activity, Velvetleaf (velvetleaf [2]; 5 g/are) | Herbicidal activity, Velvetleaf (velvetleaf [2]; 10 g/are) | Herbicidal activity, Velvetleaf (velvetleaf [3]; 1.25 g/are) | Herbicidal activity, Velvetleaf (velvetleaf [3]; 5 g/are) | Herbicidal activity, Sicklepod (sicklepod; 10 g/are) | Herbicidal activity, Wild mustard (wild mustard; 1.25 g/are) | Herbicidal activity, Wild mustard (wild mustard; 5 g/are)
1 (90-99): Phytotoxicity, Corn (corn [4]; 10 g/are) | Phytotoxicity, Corn (corn [5]; 5 g/are)
4 (1-10): Herbicidal activity, Barnyardgrass (barnyardgrass; 1.25 g/are) | Herbicidal activity, Wild cat (wild oat; 1.25 g/are) | Herbicidal activity, Green foxtail (green foxtail; 2.5 g/are) | Herbicidal activity, Morningglory (morningglory; 2.5 g/are) | Herbicidal activity, Morningglory (morningglory; 10 g/are) | Herbicidal activity, Johnsongrass (Johnsongrass; 2.5 g/are) | Herbicidal activity, Tall morningglory (tall morningglory; 5 g/are) | Herbicidal activity, Sicklepod (sicklepod; 5 g/are)
0 (100): Phytotoxicity, Corn (corn [4]; 2.5 g/are) | Phytotoxicity, Corn (corn [5]; 1.25 g/are) | Phytotoxicity, Corn (corn [6]; 5 g/are) | Phytotoxicity, Corn (corn [6]; 10 g/are)

CCOc1cc(N2C(=O)C3=C(CCCC3)C2=O)c(F)cc1Br [compound 13]
4 (1-10): Herbicidal activity, Velvetleaf (velvetleaf [1]; 2.5 g/are) | Herbicidal activity, Green foxtail (green foxtail; 2.5 g/are) | Herbicidal activity, Johnsongrass (Johnsongrass; 2.5 g/are)
2 (21-40): Herbicidal activity, Barnyardgrass (barnyardgrass; 1.25 g/are) | Herbicidal activity, Wild cat (wild oat; 1.25 g/are)
1 (90-99): Phytotoxicity, Cotton (cotton; 10 g/are) | Phytotoxicity, Corn (corn [5]; 5 g/are) | Phytotoxicity, Soybean (soybean; 10 g/are)
0 (100): Phytotoxicity, Cotton (cotton; 2.5 g/are) | Phytotoxicity, Corn (corn [4]; 2.5 g/are) | Phytotoxicity, Corn (corn [4]; 10 g/are) | Phytotoxicity, Corn (corn [5]; 1.25 g/are) | Phytotoxicity, Soybean (soybean; 2.5 g/are)
5 (0): Herbicidal activity, Barnyardgrass (barnyardgrass; 5 g/are) | Herbicidal activity, Wild cat (wild oat; 5 g/are) | Herbicidal activity, Velvetleaf (velvetleaf [1]; 10 g/are) | Herbicidal activity, Green foxtail (green foxtail; 10 g/are) | Herbicidal activity, Morningglory (morningglory; 10 g/are) | Herbicidal activity, Johnsongrass (Johnsongrass; 10 g/are) | Herbicidal activity, Velvetleaf (velvetleaf [3]; 1.25 g/are) | Herbicidal activity, Velvetleaf (velvetleaf [3]; 5 g/are) | Herbicidal activity, Wild mustard (wild mustard; 1.25 g/are) | Herbicidal activity, Wild mustard (wild mustard; 5 g/are)

CCCOc1cc(N2C(=O)C3=C(CCCC3)C2=O)c(F)cc1Br [compound 14]
5 (0): Herbicidal activity, Barnyardgrass (barnyardgrass; 5 g/are) | Herbicidal activity, Wild cat (wild oat; 5 g/are) | Herbicidal activity, Velvetleaf (velvetleaf [1]; 10 g/are) | Herbicidal activity, Velvetleaf (velvetleaf [3]; 1.25 g/are) | Herbicidal activity, Velvetleaf (velvetleaf [3]; 5 g/are) | Herbicidal activity, Wild mustard (wild mustard; 1.25 g/are) | Herbicidal activity, Wild mustard (wild mustard; 5 g/are)
4 (1-10): Herbicidal activity, Velvetleaf (velvetleaf [1]; 2.5 g/are) | Herbicidal activity, Green foxtail (green foxtail; 2.5 g/are) | Herbicidal activity, Green foxtail (green foxtail; 10 g/are) | Herbicidal activity, Morningglory (morningglory; 10 g/are) | Herbicidal activity, Johnsongrass (Johnsongrass; 2.5 g/are) | Herbicidal activity, Johnsongrass (Johnsongrass; 10 g/are)
3 (11-20): Herbicidal activity, Barnyardgrass (barnyardgrass; 1.25 g/are) | Herbicidal activity, Wild cat (wild oat; 1.25 g/are)
0 (100): Phytotoxicity, Cotton (cotton; 2.5 g/are) | Phytotoxicity, Cotton (cotton; 10 g/are) | Phytotoxicity, Corn (corn [4]; 2.5 g/are) | Phytotoxicity, Corn (corn [4]; 10 g/are) | Phytotoxicity, Corn (corn [5]; 1.25 g/are) | Phytotoxicity, Soybean (soybean; 2.5 g/are)
1 (90-99): Phytotoxicity, Corn (corn [5]; 5 g/are) | Phytotoxicity, Soybean (soybean; 10 g/are)

CCC(C)Oc1cc(N2C(=O)C3=C(CCCC3)C2=O)c(F)cc1Br (centres unmarked) [compound 15]
2 (21-40): Herbicidal activity, Barnyardgrass (barnyardgrass; 1.25 g/are) | Herbicidal activity, Wild cat (wild oat; 1.25 g/are)
0 (100): Phytotoxicity, Cotton (cotton; 2.5 g/are) | Phytotoxicity, Corn (corn [4]; 2.5 g/are) | Phytotoxicity, Corn (corn [4]; 10 g/are) | Phytotoxicity, Corn (corn [5]; 1.25 g/are) | Phytotoxicity, Soybean (soybean; 2.5 g/are)
5 (0): Herbicidal activity, Barnyardgrass (barnyardgrass; 5 g/are) | Herbicidal activity, Wild cat (wild oat; 5 g/are) | Herbicidal activity, Velvetleaf (velvetleaf [1]; 10 g/are) | Herbicidal activity, Morningglory (morningglory; 10 g/are) | Herbicidal activity, Velvetleaf (velvetleaf [3]; 1.25 g/are) | Herbicidal activity, Velvetleaf (velvetleaf [3]; 5 g/are) | Herbicidal activity, Wild mustard (wild mustard; 1.25 g/are) | Herbicidal activity, Wild mustard (wild mustard; 5 g/are)
4 (1-10): Herbicidal activity, Velvetleaf (velvetleaf [1]; 2.5 g/are) | Herbicidal activity, Green foxtail (green foxtail; 10 g/are) | Herbicidal activity, Johnsongrass (Johnsongrass; 2.5 g/are) | Herbicidal activity, Johnsongrass (Johnsongrass; 10 g/are)
1 (90-99): Phytotoxicity, Cotton (cotton; 10 g/are) | Phytotoxicity, Corn (corn [5]; 5 g/are) | Phytotoxicity, Soybean (soybean; 10 g/are)
